Results: BigSolDB 2.1

O=[N+]([O-])c1c(Cl)cc(Cl)c([N+](=O)[O-])c1Cl
solubility (mole fraction)
Conditions | 278.15 K | 283.15 K | 288.15 K | 293.15 K | 298.15 K | 303.15 K | 308.15 K | 311.15 K | 313.15 K | 318.15 K
in 1,2-dichloroethane | 0.0536 | 0.0636 | 0.0732 | 0.0837 | 0.0961 | 0.108 | 0.123 | – | 0.144 | 0.168
in acetone | 0.0844 | 0.0944 | 0.106 | 0.117 | 0.13 | 0.145 | 0.162 | – | 0.18 | 0.2
in acetonitrile | 0.0224 | 0.0267 | 0.0313 | 0.0373 | 0.0447 | 0.0531 | 0.0635 | – | 0.0769 | 0.0928
in chloroform | 0.0715 | 0.0892 | 0.0997 | 0.11 | 0.121 | 0.129 | 0.141 | – | 0.165 | 0.197
in dichloromethane | 0.0668 | 0.0758 | 0.0869 | 0.0981 | 0.11 | 0.125 | 0.141 | 0.147 | – | –
in ethanol | 0.00389 | 0.00461 | 0.00539 | 0.0062 | 0.00712 | 0.00831 | 0.00969 | – | 0.0113 | 0.0132
in ethyl acetate | 0.0768 | 0.0849 | 0.0947 | 0.105 | 0.116 | 0.13 | 0.145 | – | 0.16 | 0.177
in methanol | 0.0034 | 0.00426 | 0.00698 | 0.0221 | 0.0422 | 0.0562 | 0.0718 | – | 0.0849 | 0.0909
in methyl acetate | 0.074 | 0.0832 | 0.0943 | 0.109 | 0.124 | 0.14 | 0.156 | – | 0.173 | 0.19
in n-butanol | 0.00475 | 0.00566 | 0.00668 | 0.00776 | 0.00906 | 0.0108 | 0.013 | – | 0.0157 | 0.0189
in n-propanol | 0.00412 | 0.0049 | 0.00565 | 0.00668 | 0.00793 | 0.00921 | 0.0109 | – | 0.0132 | 0.0158
in tetrachloromethane | 0.0155 | 0.0185 | 0.0224 | 0.0277 | 0.0341 | 0.0411 | 0.0492 | – | 0.0589 | 0.0695
